We go through 21 molecules from patent US20230133910A1, “NEW METHOD FOR DETECTING AND QUANTIFYING RNA” (EAST CHINA UNIVERSITY OF SCIENCE AND TECHNOLOGY, priority 2020, published 2023).

The subject of this series is Carrot-1 RNA aptamer. The experiment in a line: Properties of Carrot-1 RNA aptamer with different fluorophores (spectra, extinction coefficient, quantum yield, activation fold). The class given is biochemical. The following applies: for Emmax / Exmax / Extinction coefficient / Quantum yield: fluorophore bound to Carrot-1 RNA aptamer; for Activation fold: fluorophore with Carrot-1 RNA aptamer versus fluorophore alone. Here is the method: (5) Function detection of nucleic acid aptamers Carrot or Carrot mutant nucleic acid aptamer molecules were prepared according to common experimental method (I), 5 μM of nucleic acid aptamer molecules and 1 μM of fluorophore molecules were incubated in detection buffer (40 mM HEPES, pH 7.4, 125 mM KCl, 5 mM MgCl2, 5% DMSO), and Synergy Neo2 multifunctional microplate reader was used for detecting and obtaining the maximum excitation peak and the maximum emission peak of the fluorescence of the nucleic acid aptamer-fluorophore molecule complex. The Synergy Neo2 multifunctional microplate reader was used again for detecting the fluorescence intensity of the aptamer-fluorophore molecule complex under its maximum excitation and emission conditions. Control sample (1 μM of fluorophore molecules without nucleic acid aptamer) was measured under the same condition, and the ratio of fluorescence intensity was calculated. […] By using Synergy Neo2 multifunctional microplate reader, it was detected that the fluorescence intensity of the complex was 5720 when it was excited at 524±10 nm and emitted under the emission condition of 580 nm±10 nm, while fluorescence intensity of the control sample (1 μM of IV-39 fluorophore molecules) under the same detection condition was 20, so the activation multiple of Carrot-1 nuclear acid aptamer to IV-39 fluorophore molecule was 286.
In order to detect the spectral properties of the Carrot-IV-39 complex, Carrot-1 (SEQ ID NO: 2) RNA was prepared according to the commonly used experimental method (1). 1 μM IV-39 with 5 μM Carrot-1 was incubated.
Carrot-1 RNA aptamer was prepared according to the commonly used experimental methods (1), and was used to detect the properties of IV-39 analogues upon Carrot binding, including the fluorescence spectrum, extinction coefficient, quantum yield and fluorescence activation fold. From the data shown in the table, Carrot-1 still could activate the fluorescence of IV-39 analogues.

Consider `CN1C(=O)/C(=C/c2ccc(N(C)CCO)cc2)N=C1/C=C/c1cccc(F)c1` [Carrot-1-IV-19], for which the Emmax worked out at 590 nm, the Exmax turned out to be 522 nm, the Extinction coefficient is 30000 M⁻¹ cm⁻¹ and the Quantum yield stood at 0.43. Besides, the Activation fold was 331 fold.

With `CN1C(=O)/C(=C/c2cc(Br)c(O)c(Br)c2)N=C1/C=C/c1ccc(F)cc1` [Carrot-1-IV-16], the Emmax is 587 nm, the Exmax is reported as 485 nm, the Extinction coefficient is 22000 M⁻¹ cm⁻¹ and the Quantum yield is 0.08. In addition, the Activation fold stood at 34 fold.

Take `C#CCN1C(=O)/C(=C/c2ccc(O)c(Cl)c2)N=C1/C=C/c1ccc(I)cc1` [Carrot-1-IV-14]: the Emmax was found to be 585 nm, the Exmax came to 482 nm, the Extinction coefficient is 21000 M⁻¹ cm⁻¹ and the Quantum yield turned out to be 0.02. Moreover, the Activation fold worked out at 6 fold.

Take `CCN(CC)c1ccc(/C=C2N=C(/C=C/c3ccc(Cl)cc3)N(CC(=O)OC)C\2=O)nc1` [Carrot-1-IV-25]: the Emmax worked out at 574 nm, the Exmax amounted to 475 nm, the Extinction coefficient amounted to 18000 M⁻¹ cm⁻¹ and the Quantum yield came out at 0.02. Besides, the Activation fold was determined as 4 fold.

With `CN1C(=S)/C(=C/c2cc(F)c(O)c(F)c2)N=C1/C=C/c1ccc(C#N)cc1` [Carrot-1-IV-8], the Emmax is 638 nm, the Exmax came out at 534 nm, the Extinction coefficient is 22500 M⁻¹ cm⁻¹ and the Quantum yield came to 0.21. The Activation fold was found to be 68 fold.

On to `CN1CCc2cc(/C=C3N=C(/C=C/c4ccc(Br)nc4)N(CC(F)(F)F)C\3=O)ccc21` [Carrot-1-IV-30], for which the Emmax was determined as 588 nm, the Exmax is recorded as 485 nm, the Extinction coefficient was found to be 19000 M⁻¹ cm⁻¹ and the Quantum yield was found to be 0.05. Besides, the Activation fold is given as 15 fold.

`CN1C(=O)/C(=C/c2cc(F)c(O)c(F)c2)N=C1/C=C/c1cccc(O)c1` [Carrot-1-IV-4]: the Emmax is given as 574 nm, the Exmax came out at 490 nm, the Extinction coefficient was 23000 M⁻¹ cm⁻¹ and the Quantum yield is reported as 0.37. Further, the Activation fold worked out at 191 fold.

Turning to `C#CCOCCN(C)c1ccc(/C=C2N=C(/C=C/c3ccc(F)cc3)N(C)C\2=O)cc1` [Carrot-1-IV-36], the Emmax is given as 578 nm, the Exmax worked out at 511 nm, the Extinction coefficient is 22000 M⁻¹ cm⁻¹ and the Quantum yield stood at 0.28. Besides, the Activation fold worked out at 262 fold.

Regarding `COC(=O)CNCCN(C)c1ccc(/C=C2N=C(/C=C/c3ccc(Br)cc3)N(C)C\2=O)cc1` [Carrot-1-IV-32], the Emmax worked out at 591 nm, the Exmax is 489 nm, the Extinction coefficient was 22000 M⁻¹ cm⁻¹ and the Quantum yield is on record as 0.11. Further, the Activation fold was 64 fold.

`CNC(=O)CN1C(=O)/C(=C/c2cc(Cl)c(O)c(Cl)c2)N=C1/C=C/c1ccc(Br)cc1` [Carrot-1-IV-13]: the Emmax was 579 nm, the Exmax is listed as 478 nm, the Extinction coefficient was determined as 20000 M⁻¹ cm⁻¹ and the Quantum yield was determined as 0.02. Besides, the Activation fold is 5 fold.

In the case of `CN1C(=O)/C(=C/c2ccc(N(C)CCO)cc2)N=C1/C=C/c1cccc(O)c1` [Carrot-1-IV-17], the Emmax turned out to be 582 nm, the Exmax is reported as 524 nm, the Extinction coefficient turned out to be 32000 M⁻¹ cm⁻¹ and the Quantum yield came to 0.47. The Activation fold is listed as 282 fold.

In the case of `CN1C(=S)/C(=C/c2cc(F)c(O)c(F)c2)N=C1/C=C/c1ccc(F)cc1` [Carrot-1-IV-7], the Emmax came out at 598 nm, the Exmax turned out to be 514 nm, the Extinction coefficient was 24000 M⁻¹ cm⁻¹ and the Quantum yield was determined as 0.27. In addition, the Activation fold came out at 201 fold.

For `O=C1/C(=C/c2ccc(O)c(Br)c2)N=C(/C=C/c2cccc(Cl)c2)N1CCO` [Carrot-1-IV-15], the Emmax came out at 578 nm, the Exmax is 480 nm, the Extinction coefficient was found to be 21000 M⁻¹ cm⁻¹ and the Quantum yield was 0.03. For the same molecule, the Activation fold turned out to be 7 fold.

Consider `COCCOCCOCCOCCN1C(=O)/C(=C/c2cc(F)c(O)c(I)c2)N=C1/C=C/c1ccc(Cl)cc1` [Carrot-1-IV-12], for which the Emmax stood at 577 nm, the Exmax worked out at 482 nm, the Extinction coefficient was found to be 19000 M⁻¹ cm⁻¹ and the Quantum yield is listed as 0.03. The Activation fold is 6 fold.

In the case of `CN1C(=O)/C(=C/c2ccc(N(C)CCS(=O)(=O)O)cc2)N=C1/C=C/c1ccc(C#N)cc1` [Carrot-1-IV-29], the Emmax is on record as 619 nm, the Exmax is listed as 531 nm, the Extinction coefficient was determined as 27000 M⁻¹ cm⁻¹ and the Quantum yield is 0.26. The Activation fold came to 87 fold.

As for `CC(C)CN1C(=O)/C(=C/c2cc(F)c(O)c(Br)c2)N=C1/C=C/c1ncc(C#N)cn1` [Carrot-1-IV-11], the Emmax is on record as 614 nm, the Exmax was determined as 507 nm, the Extinction coefficient is 21000 M⁻¹ cm⁻¹ and the Quantum yield stood at 0.05. In addition, the Activation fold came to 16 fold.

`CN(C)CCN(C)c1ccc(/C=C2N=C(/C=C/c3cccc(F)c3)N(C)C\2=O)cc1` [Carrot-1-IV-34]: the Emmax is 581 nm, the Exmax is given as 515 nm, the Extinction coefficient turned out to be 29000 M⁻¹ cm⁻¹ and the Quantum yield was 0.38. Further, the Activation fold is given as 287 fold.

As for `CN1C(=O)/C(=C/c2cnc(N(C)CCC#N)nc2)N=C1/C=C/c1ccccc1I` [Carrot-1-IV-27], the Emmax worked out at 576 nm, the Exmax came out at 472 nm, the Extinction coefficient came out at 19000 M⁻¹ cm⁻¹ and the Quantum yield is listed as 0.09. Also, the Activation fold stood at 57 fold.

Consider `CCCN1C(=S)/C(=C/c2ccc(N(C)C)nc2)N=C1/C=C/c1ccccc1F` [Carrot-1-IV-24], for which the Emmax was 615 nm, the Exmax is reported as 498 nm, the Extinction coefficient turned out to be 21000 M⁻¹ cm⁻¹ and the Quantum yield was 0.09. In addition, the Activation fold was 45 fold.

Turning to `CN1C(=O)/C(=C/c2ccc(N(C)CCO)cc2)N=C1/C=C/c1ccc(F)cc1` [Carrot-1-IV-22], the Emmax was 580 nm, the Exmax was determined as 522 nm, the Extinction coefficient was found to be 32000 M⁻¹ cm⁻¹ and the Quantum yield was 0.46. For the same molecule, the Activation fold is recorded as 301 fold.

`C=CCOCCN(C)c1ccc(/C=C2N=C(/C=C/c3ccccc3C#N)N(C)C\2=S)cc1` [Carrot-1-IV-23]: the Emmax is listed as 648 nm, the Exmax came to 547 nm, the Extinction coefficient amounted to 19000 M⁻¹ cm⁻¹ and the Quantum yield is given as 0.12. Moreover, the Activation fold was found to be 57 fold.
